This note sets out measurements from patent US20110275559A1, “Long-Acting Y2 and/or Y4 Receptor Agonists” (Novo Nordisk A/S, priority 2008, published 2011).

In data set [1] the target is T1, Y4 receptor (Homo sapiens, UniProt P50391).
T1 construct: host or cells: ACTOne HEK-293 cells
The data set is described as follows: Y4 receptor ACTOne based FLIPR assay (cAMP biosensor). Format: cell-based. The source says:
(§1) ACTOne™ is an easily scaleable cAMP biosensor HTS platform for measurement of Gs and Gi coupled 7™ receptor signalling from BD Biosciences (San Jose, Calif.). The cells express a biosensor developed around a modified rat olfactory cyclic nucleotide gated (CNG) calcium channel—a fairly non-discriminatory ion channel that responds to cAMP and cGMP. The CNG has been engineered to be cAMP selective and thus function as a cAMP responsive biosensor that signals through calcium or membrane potential responsive dyes. Y2 or Y4 receptor expressing ACTOne HEK-293 cells are obtained from BD Biosciences. The cells are loaded with a calcium responsive dye that only distributes in the cytoplasm. Probenecid, an inhibitor of the organic anion transporter is added to prevent the dye from leaving the cell. A phosphodiesterase inhibitor is added to prevent formatted cAMP from being degraded. Isoproterenol (an β1/β2 agonist) is added to activate the adenylate cyclase. When an Y2 or Y4 receptor agonist is added, the adenylate cyclase is inactivated. The decreased calcium concentration in the cytoplasm is then detected as an increase in fluorescence. Together with the test substance, Isoproterenol at a concentration matching EC80, is added to all wells. • The cells are plated out in Greiner 384-well plates. […] The plates are covered with tinfoil to avoid light (the dye can be excited by the daylight, which results in higher baseline and variation). • The FLIPR (FLIPRtetra from Molecular Devices, CA, USA) adds 1 μl sample and 1 μl isoproterenol (0.05 μM final concentration) at the same time. • The fluorescence signal from the wells is measured 330 seconds after sample addition on the FLIPR.

Data set [2] can be described thus: Mini-pig PK assay (plasma half-life). Conditions: Göttingen, minipig, in vivo, iv, 10 nmol/kg. The method in brief:
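Catheterised mini-pigs received compound i.v. at 10 nmol/kg in pH 4.0 phosphate/NaCl/tween vehicle, or alternatively i.v. or s.c. at 1–30 nmol/kg in pH 8.0 K2HPO4/tween. Stabilised plasma was sampled up to 13 days and assayed by LC-MS (LLOQ 2 nM). Half-life came from non-compartmental analysis of individual animal profiles.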

Data set [3] deals with T2, Y2 receptor (Homo sapiens, UniProt P49146).
T2 construct: host or cells: ACTOne HEK-293 cells
T2 sequence (P49146 1-381): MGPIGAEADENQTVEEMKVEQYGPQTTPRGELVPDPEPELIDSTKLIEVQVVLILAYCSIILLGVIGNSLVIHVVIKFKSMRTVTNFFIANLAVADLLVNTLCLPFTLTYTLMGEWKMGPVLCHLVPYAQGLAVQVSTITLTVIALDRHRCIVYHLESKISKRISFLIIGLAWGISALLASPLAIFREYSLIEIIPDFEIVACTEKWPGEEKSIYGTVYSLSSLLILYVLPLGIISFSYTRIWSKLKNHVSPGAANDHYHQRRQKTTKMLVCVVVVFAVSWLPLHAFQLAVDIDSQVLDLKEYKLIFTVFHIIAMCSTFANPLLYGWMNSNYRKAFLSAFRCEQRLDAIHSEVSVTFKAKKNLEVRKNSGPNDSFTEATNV
The data set is described as follows: Y2 receptor ACTOne based FLIPR assay (cAMP biosensor). The class given is cell-based.
Excerpt: as §1

Molecules are shown by their SMILES. *1 amine or outer side, *2 acyl side, *3 side chain or, on linkers, in order; H or OH if unused. Where a SMILES comes first, the peptide text is derived from it. Side-chain parts run from the residue outwards. The star is where a group is joined. C20 diacid = O=C(O)CCCCCCCCCCCCCCCCCCC(=O)*; γGlu = O=C(O)[C@H](CCC(=O)[*:2])N[*:1]; Trx = NC[C@H]1CC[C@H](C(=O)O)CC1; AEEA = NCCOCCOCC(=O)O Where only a bound is given, the exact number is not on record here.

T1 sequence (P50391 whole entry): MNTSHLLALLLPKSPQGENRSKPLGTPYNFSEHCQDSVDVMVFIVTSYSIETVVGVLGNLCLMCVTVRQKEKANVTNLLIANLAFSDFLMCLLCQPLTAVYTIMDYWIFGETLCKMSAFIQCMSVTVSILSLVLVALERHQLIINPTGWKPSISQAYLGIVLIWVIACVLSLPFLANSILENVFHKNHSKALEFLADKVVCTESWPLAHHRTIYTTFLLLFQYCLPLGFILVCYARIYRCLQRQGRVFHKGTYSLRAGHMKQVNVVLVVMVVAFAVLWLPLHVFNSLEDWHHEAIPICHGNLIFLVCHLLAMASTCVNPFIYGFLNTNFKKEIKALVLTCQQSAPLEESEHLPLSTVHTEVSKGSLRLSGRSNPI

By EC50 is commonly meant the concentration giving half of the maximal effect. Read a low EC50 as greater potency. In data set [1], `CC[C@H](C)[C@H](NC(=O)[C@H](Cc1ccc(O)cc1)NC(=O)[C@H](CCCNC(=N)N)NC(=O)[C@H](CCCNC(=N)N)NC(=O)[C@H](CC(C)C)NC(=O)[C@H](CC(=O)O)NC(=O)[C@H](C)NC(=O)[C@H](C)NC(=O)[C@H](Cc1ccc(O)cc1)NC(=O)[C@H](CCC(N)=O)NC(=O)[C@H](C)NC(=O)[C@H](CC(C)C)NC(=O)[C@H](CCC(N)=O)NC(=O)[C@H](CCC(=O)O)NC(=O)[C@@H]1CCCN1C(=O)[C@H](CCCCNC(=O)COCCOCCNC(=O)COCCOCCNC(=O)CC[C@H](NC(=O)[C@H]1CC[C@H](CNC(=O)CCCCCCCCCCCCCCCCCCC(=O)O)CC1)C(=O)O)NC(=O)[C@H](C)NC(=O)[C@H](CC(N)=O)NC(=O)[C@H](CC(=O)O)NC(=O)CNC(=O)[C@@H]1CCCN1C(=O)[C@H](Cc1ccc(O)cc1)NC(=O)[C@@H](NC(=O)[C@@H]1CCCN1C(=O)[C@H](CCC(=O)O)NC(=O)[C@H](CC(C)C)NC(=O)[C@@H]1CCCN1C(=O)[C@H](C)N)C(C)C)C(=O)N[C@@H](CC(N)=O)C(=O)N[C@@H](CC(C)C)C(=O)N[C@@H](CC(C)C)C(=O)N[C@H](C(=O)N[C@@H](CCCNC(=N)N)C(=O)N[C@@H](CCC(N)=O)C(=O)N[C@@H](CCCNC(=N)N)C(=O)N[C@@H](Cc1ccc(O)cc1)C(N)=O)[C@@H](C)O` [SEQ ID NO: 4] (H-APLEPVYPGDNAK([AEEA-AEEA-γGlu-Trx-C20 diacid])PEQLAQYAADLRRYINLLTRQRY-NH2; N-terminus and C-terminus assumed) came in with an EC50 of 0.018 µM.

The compound `CC(C)C[C@H](NC(=O)[C@H](CCC(N)=O)NC(=O)[C@H](CCC(=O)O)NC(=O)[C@@H]1CCCN1C(=O)[C@H](CCCCNC(=O)COCCOCCNC(=O)COCCOCCNC(=O)CC[C@H](NC(=O)[C@H]1CC[C@H](CNC(=O)CCCCCCCCCCCCCCCCCCC(=O)O)CC1)C(=O)O)NC(=O)[C@H](C)NC(=O)[C@H](CC(N)=O)NC(=O)[C@H](CC(=O)O)NC(=O)CNC(=O)[C@@H]1CCCN1C(=O)[C@H](Cc1ccc(O)cc1)NC(=O)[C@@H](NC(=O)[C@@H]1CCCN1C(=O)[C@H](CCC(=O)O)NC(=O)[C@H](CC(C)C)NC(=O)[C@@H]1CCCN1C(=O)[C@H](C)N)C(C)C)C(=O)N[C@@H](C)C(=O)N[C@@H](CCC(N)=O)C(=O)N[C@@H](Cc1ccc(O)cc1)C(=O)N[C@@H](C)C(=O)N[C@@H](C)C(=O)N[C@@H](CC(=O)O)C(=O)N[C@@H](CC(C)C)C(=O)N[C@@H](CCCNC(=N)N)C(=O)N[C@@H](CCCNC(=N)N)C(=O)N[C@@H](Cc1ccc(O)cc1)C(=O)N[C@@H](CC(C)C)C(=O)N[C@@H](CC(N)=O)C(=O)N[C@H](C(=O)N[C@@H](CC(C)C)C(=O)N[C@H](C(=O)N[C@@H](CCCNC(=N)N)C(=O)N[C@@H](CCC(N)=O)C(=O)N[C@@H](CCCNC(=N)N)C(=O)N[C@@H](Cc1ccc(O)cc1)C(N)=O)[C@@H](C)O)C(C)C` [SEQ ID NO: 15, N-epsilon13-[2-(2-{2-[2-(2-{2-[(S)-4-Carboxy-4-({trans-4-[(19-carboxynonadecanoylamino)methyl]cyclohexanecarbonyl}amino)butyrylamino]-eth-oxy}ethoxy)acetylamino]ethoxy}ethoxy)acetyl][Lys13,Leu17,Leu28,Val30,Gln34]hPP(1-36)] (H-APLEPVYPGDNAK([AEEA-AEEA-γGlu-Trx-C20 diacid])PEQLAQYAADLRRYLNVLTRQRY-NH2; N-terminus and C-terminus assumed) had an EC50 in data set [1] of 0.007 µM.

Compound `CC[C@H](C)[C@H](NC(=O)[C@H](Cc1ccc(O)cc1)NC(=O)[C@H](CCCNC(=N)N)NC(=O)[C@H](CCCNC(=N)N)NC(=O)[C@H](CC(C)C)NC(=O)[C@H](CC(=O)O)NC(=O)[C@H](C)NC(=O)[C@H](C)NC(=O)[C@H](Cc1ccc(O)cc1)NC(=O)[C@H](CCC(N)=O)NC(=O)[C@H](C)NC(=O)[C@H](CC(C)C)NC(=O)[C@H](CCC(N)=O)NC(=O)[C@H](CCC(=O)O)NC(=O)[C@@H]1CCCN1C(=O)[C@H](CCCCNC(=O)COCCOCCNC(=O)COCCOCCNC(=O)CC[C@H](NC(=O)[C@H]1CC[C@H](CNC(=O)CCCCCCCCCCCCCCCCCCC(=O)O)CC1)C(=O)O)NC(=O)[C@H](C)NC(=O)[C@H](CC(=O)O)NC(=O)[C@H](CC(N)=O)NC(=O)CNC(=O)[C@@H]1CCCN1C(=O)[C@H](Cc1ccc(O)cc1)NC(=O)[C@@H](NC(=O)[C@@H]1CCCN1C(=O)[C@H](CCC(=O)O)NC(=O)[C@H](CC(C)C)NC(=O)[C@@H]1CCCN1C(=O)[C@H](C)N)C(C)C)C(=O)N[C@@H](CC(N)=O)C(=O)N[C@@H](CC(C)C)C(=O)N[C@H](C(=O)N[C@H](C(=O)N[C@@H](CCCNC(=N)N)C(=O)N1CCC[C@H]1C(=O)N[C@@H](CCCNC(=N)N)C(=O)N[C@@H](Cc1ccc(O)cc1)C(N)=O)[C@@H](C)O)C(C)C` [SEQ ID NO: 14, N-epsilon13-[2-(2-{2-[2-(2-{2-[(S)-4-Carboxy-4-({trans-4-[(19-carboxynonadecanoylamino)methyl]cyclohexanecarbonyl}amino)butyrylamino]-eth-oxy}ethoxy)acetylamino]ethoxy}ethoxy)acetyl][Asn10,Asp11,Lys13,Leu17,Leu30,Val31]hPP(1-36)] (H-APLEPVYPGNDAK([AEEA-AEEA-γGlu-Trx-C20 diacid])PEQLAQYAADLRRYINLVTRPRY-NH2; N-terminus and C-terminus assumed) gave an EC50 in data set [1] of 0.018 µM.

The half-life is how long it takes for the measured level to halve. Higher therefore signals slow decline. In data set [2], `CC[C@H](C)[C@H](NC(=O)[C@H](Cc1ccc(O)cc1)NC(=O)[C@H](CCCNC(=N)N)NC(=O)[C@H](CCCNC(=N)N)NC(=O)[C@H](CC(C)C)NC(=O)[C@H](CC(=O)O)NC(=O)[C@H](C)NC(=O)[C@H](C)NC(=O)[C@H](Cc1ccc(O)cc1)NC(=O)[C@H](CCC(N)=O)NC(=O)[C@H](C)NC(=O)[C@H](CC(C)C)NC(=O)[C@H](CCC(N)=O)NC(=O)[C@H](CCC(=O)O)NC(=O)[C@@H]1CCCN1C(=O)[C@@H](NC(=O)[C@H](C)NC(=O)[C@H](CC(N)=O)NC(=O)[C@H](CC(=O)O)NC(=O)CNC(=O)[C@@H]1CCCN1C(=O)[C@H](Cc1ccc(O)cc1)NC(=O)[C@@H](NC(=O)[C@@H]1CCCN1C(=O)[C@H](CCC(=O)O)NC(=O)[C@H](CC(C)C)NC(=O)[C@@H]1CCCN1C(=O)[C@H](C)NC(=O)COCCOCCNC(=O)COCCOCCNC(=O)CC[C@H](NC(=O)[C@H]1CC[C@H](CNC(=O)CCCCCCCCCCCCCCCCCCC(=O)O)CC1)C(=O)O)C(C)C)[C@@H](C)O)C(=O)N[C@@H](CC(N)=O)C(=O)N[C@@H](CC(C)C)C(=O)N[C@@H](CC(C)C)C(=O)N[C@H](C(=O)N[C@@H](CCCNC(=N)N)C(=O)N1CCC[C@H]1C(=O)N[C@@H](CCCNC(=N)N)C(=O)N[C@@H](Cc1ccc(O)cc1)C(N)=O)[C@@H](C)O` [SEQ ID NO: 75, N-alfa-[2-(2-{2-[2-(2-{2-[(S)-4-Carboxy-4-({trans-4-[(19-carboxynonadecanoylamino)methyl]cyclohexanecarbonyl}amino)butyrylamino]-ethoxy}ethoxy)acetylamino]ethoxy}ethoxy)acetyl][Leu17,Leu30]hPP1-36] ({C20 diacid-Trx-γGlu-AEEA-AEEA}-APLEPVYPGDNATPEQLAQYAADLRRYINLLTRPRY-NH2; C-terminus assumed) gave a half-life of 48 h. Also, the EC50 in data set [3] is above 1 µM.
